# From PMC6677754, “In silico design and optimization of selective membranolytic anticancer peptides” (Scientific Reports, 2019)
# Peptide text beside a SMILES is read from it.
# Legend:
# [1] = test system: noncancer HDMEC primary cells (human dermal microvascular endothelial cells); assay: Cell viability assay (MTT); assay type: cell-based; details: Table S2; noncancer primary cells; MTT, 24 h; mean ± sd; N = 2 independent measurements with six technical replicates each (Figs S6-S8)
# Description: 10% fetal bovine serum and 1% penicillin-streptomycin (Thermo Fisher Scientific, Waltham, MA, USA). The cultures were kept at 37°C in a 5% CO2 atmosphere incubator (Thermo Fisher Scientific, Waltham, MA, USA) and split every two to three days to new culture flasks. Cells no older than 20 passages were used for experiments.
# For splitting, the cell culture media was aspirated, the cells were washed with 0.01 M phosphate buffered saline (PBS, Gibco, Thermo Fisher Scientific, Waltham, MA, USA) and trypsin-EDTA (trypsin - ethylene diamine tetraacetic acid, Fisher scientific, UK) was added to the cell layer to detach them from the flask surface. After incubation for 2 min at 37°C, cells were resuspended with an equal volume of DMEM media and centrifuged at 310 g for 5 min at 4°C. After removal of the supernatant the cells were resuspended in DMEM cell media and split into new cell culture flasks at a 1/3 to 1/5 ratio.
# Determination of the anticancer peptides half effective concentration (EC50) was performed by a 3-(4,5-dimethylthiazol-2-yl)-2,5-diphenyltetrazolium bromide (MTT) assay, as described elsewhere21. Briefly, […] were seeded in each well of a 96-well plate and left to adhere and […]
# sulfoxide (DMSO, Fisher Scientific, UK) at an intermediate concentration of 1 mM. The peptides were then diluted in a 2-fold dilution series starting at 100 μM with DMEM culture media. Cells were incubated with the peptide solutions for 24 h. After this time, the cell media was removed and the cells were incubated for 1 h with a 0.5 mg mL−1 MTT solution to allow enough time for formazan crystal formation (Sigma Aldrich, Steinheim, Germany). The supernatant was removed and 100 μL of DMSO were added into each well to resuspend the formazan crystals.
# After manually shaking the plates to completely dissolve the crystals, the absorbance was measured at 540 nm in a Tecan Infinity M1000 spectrophotometer. The cell viability was determined based on the quantification of the color intensity in each culture well, considering the absorbance obtained by the control media without peptides as a 100% survival. The resultant sigmoidal curves were analyzed with the drc22 R package using a log-logistic model
# [2] = test system: MCF7 breast adenocarcinoma cell line; assay: Cell viability assay (MTT); assay type: cell-based, human; details: Table S2, 24 h, mean ± sd, N = 2 independent measurements with six technical replicates each (Figs S6-S8)
# How it was run: (§1)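 Viability by MTT: 10^4 cells/well exposed 24 h to 2-fold peptide dilutions from 100 μM in DMEM, then 1 h with 0.5 mg mL−1 MTT; absorbance at 540 nm relative to peptide-free medium as 100% survival. EC50 from a 3-parameter log-logistic fit.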
# [3] = test system: A549 lung adenocarcinoma cell line; assay: Cell viability assay (MTT); assay type: cell-based, human; details: Table S2; MTT, 24 h; mean ± sd; N = 2 independent measurements with six technical replicates each (Figs S6-S8); read-out: A549 EC50 /µM
# How it was run: as §1
# human erythrocytes = assay: Hemolysis assay; assay type: cell-based; details: 1 h
# Description: Human erythrocytes were freshly ordered at the Blutspende Zürich. Erythrocytes were washed 3 times with a […] phosphate buffered saline (PBS, Gibco, Thermo Fisher Scientific, Waltham, MA, USA) solution centrifuging at 800 g for 10 min or until the supernatant appeared clear to remove the blood plasma. A 5% v/v erythrocytes : PBS solution was prepared for direct use. For HC50 determination, peptides were dissolved in PBS at an intermediate concentration of 1 mM. A dilution series of the peptide from 200 to 6.25 μM was plated in a round-bottomed 96-well plate in triplicates, with a volume of 50 μL per well. PBS buffer and a solution of 0.1% Triton-X-100 (Fisher Chemical, Loughborough, UK) in PBS were employed as negative and positive controls, respectively. 50 μL of the 5% erythrocyte solution were added in each well and the plates were incubated at 37°C for 1 h. After this time, 100 μL PBS were added to each well and plates were centrifuged at 800 g for 10 min. 100 μL of the supernatant were transferred to a flat-bottomed 96-well plate and the absorbance was measured at 540 nm in a Tecan Infinity M1000 spectrophotometer plate reader. The hemolysis percentage was calculated, considering the absorbance values of the Triton and PBS wells as 100% and 0% hemolysis, respectively.
# The resultant sigmoidal curves were analyzed with the drc22 R package using a log-logistic model with 3 fixed parameters to obtain the HC50 values. […]
# NCI-60 screening procedure […]
# Each peptide was tested in a 5-concentration assay, starting at 10^-4 M and diluting 10-fold to the lowest 10^-8 M concentration. The peptides were incubated for 48 h and the cell concentration was assayed by using the sulforhodamine B assay25 and optical density measurements. The growth inhibition (GI50) value24, measures the growth inhibitory power of the drug agent. The GI50 value is the concentration of the test drug for which the condition in Eq. S1 is met, where T is the optical density of the test well after a 48-h exposure to the peptide, T0 the optical density before applying the peptide drug and C the control optical density of a well where no peptide was applied.
Compound,EC50 [1] [µM],EC50 [2] [µM],EC50 [3] [µM],Eryhtr. HC50 /µM (human erythrocytes; red cells of human) [µM],"Eryhtr. HC50 /µM (human erythrocytes; Table S2, 5% v/v erythrocytes in PBS added 1:1, peptide 200 to 6.25 µM, 37°C, absorbance 540 nm, 0.1% Triton-X-100 = 100%, mean ± sd, N = 2 independent, three technical replicates) [µM]"
CC[C@H](C)[C@H](NC(=O)[C@H](CC(C)C)NC(=O)[C@@H](N)CCCNC(=N)N)C(=O)N[C@@H](CCCCN)C(=O)N[C@@H](CCCNC(=N)N)C(=O)N[C@H](C(=O)N[C@@H](CCCCN)C(=O)N[C@H](C(=O)N[C@@H](Cc1c[nH]c2ccccc12)C(=O)N[C@@H](Cc1ccc(O)cc1)C(=O)N[C@@H](CCCNC(=N)N)C(=O)N[C@@H](CCCCN)C(=O)N[C@@H](C)C(=O)N[C@@H](Cc1c[nH]c2ccccc12)C(=O)N[C@@H](CCCCN)C(=O)N[C@H](C(=O)N[C@H](C(=O)NCC(=O)N[C@@H](CCCCN)C(=O)N[C@@H](Cc1ccccc1)C(N)=O)C(C)C)C(C)C)[C@@H](C)O)[C@@H](C)CC [Off2.7] (H-RLIKRIKTWYRKAWKVVGKF-NH2),23 ± 5,11.2 ± 0.7,15 ± 1,> 200,
CC[C@H](C)[C@H](NC(=O)[C@@H]1CCCN1C(=O)[C@H](Cc1c[nH]cn1)NC(=O)[C@H](Cc1ccccc1)NC(=O)[C@H](CCCCN)NC(=O)[C@H](CCCCN)NC(=O)[C@H](Cc1ccccc1)NC(=O)[C@@H](NC(=O)[C@@H](N)CCCNC(=N)N)C(C)C)C(=O)N[C@@H](Cc1ccc(O)cc1)C(=O)N[C@@H](Cc1c[nH]cn1)C(=O)N[C@@H](CCCNC(=N)N)C(=O)N[C@H](C(=O)N[C@@H](Cc1c[nH]c2ccccc12)C(=O)N[C@@H](CCCNC(=N)N)C(=O)N[C@@H](CC(C)C)C(=O)N[C@@H](Cc1c[nH]c2ccccc12)C(=O)NCC(=O)N[C@@H](Cc1c[nH]cn1)C(=O)N[C@@H](CC(C)C)C(N)=O)C(C)C [Off1] (H-RVFKKFHPIYHRVWRLWGHL-NH2),56 ± 7,27.4 ± 0.5,49 ± 2,> 200,
CC[C@H](C)[C@H](NC(=O)[C@H](CC(C)C)NC(=O)[C@@H](N)CCCCN)C(=O)N[C@@H](Cc1c[nH]cn1)C(=O)N[C@@H](CCCNC(=N)N)C(=O)N[C@@H](CC(C)C)C(=O)N[C@@H](CCCCN)C(=O)N[C@H](C(=O)N[C@H](C(=O)N[C@@H](Cc1ccccc1)C(=O)N[C@@H](CCCCN)C(=O)N[C@@H](CCCCN)C(=O)N[C@H](C(=O)N[C@@H](Cc1c[nH]c2ccccc12)C(=O)N[C@@H](Cc1c[nH]cn1)C(=O)N[C@@H](Cc1ccccc1)C(=O)N[C@@H](CC(C)C)C(=O)NCC(=O)N[C@@H](Cc1c[nH]cn1)C(=O)N[C@@H](CC(C)C)C(N)=O)C(C)C)C(C)C)[C@@H](C)O [Off9] (H-KLIHRLKTVFKKVWHFLGHL-NH2),22 ± 3,18.9 ± 0.2,22 ± 4,41 ± 3,
CC[C@H](C)[C@H](NC(=O)[C@H](CC(C)C)NC(=O)[C@@H](N)CCC(N)=O)C(=O)N[C@@H](Cc1c[nH]cn1)C(=O)N[C@@H](CCCCN)C(=O)N[C@H](C(=O)N[C@@H](CCCNC(=N)N)C(=O)N[C@H](C(=O)N[C@@H](Cc1c[nH]c2ccccc12)C(=O)N[C@@H](Cc1ccc(O)cc1)C(=O)N[C@@H](CCCNC(=N)N)C(=O)N[C@@H](CCCCN)C(=O)N[C@@H](C)C(=O)N[C@@H](Cc1c[nH]c2ccccc12)C(=O)N[C@@H](Cc1c[nH]cn1)C(=O)N[C@H](C(=O)N[C@@H](CC(C)C)C(=O)NCC(=O)N[C@@H](CCCCN)C(=O)N[C@H](C(N)=O)C(C)C)C(C)C)[C@@H](C)O)[C@@H](C)CC [Off2.2.2] (H-QLIHKIRTWYRKAWHVLGKV-NH2),28 ± 3,13 ± 1,20 ± 2,> 200,
CC[C@H](C)[C@H](NC(=O)[C@H](CCCCN)NC(=O)CNC(=O)[C@@H](NC(=O)[C@@H](NC(=O)[C@H](Cc1c[nH]cn1)NC(=O)[C@H](Cc1c[nH]c2ccccc12)NC(=O)[C@@H]1CCCN1C(=O)[C@H](CCCCN)NC(=O)[C@H](CCCCN)NC(=O)[C@H](CC(C)C)NC(=O)[C@H](Cc1ccccc1)NC(=O)[C@H](Cc1c[nH]cn1)NC(=O)[C@H](CCCNC(=N)N)NC(=O)[C@H](Cc1ccccc1)NC(=O)[C@H](CCCCN)NC(=O)[C@H](CCCCN)NC(=O)[C@H](Cc1ccc(O)cc1)NC(=O)[C@H](CC(C)C)NC(=O)[C@@H](N)[C@@H](C)O)C(C)C)C(C)C)C(N)=O [Off2.3] (H-TLYKKFRHFLKKPWHVVGKI-NH2),167 ± 13,65 ± 3,> 100,> 200,
CC(C)C[C@H](NC(=O)[C@H](Cc1c[nH]cn1)NC(=O)[C@H](Cc1c[nH]c2ccccc12)NC(=O)[C@H](C)NC(=O)[C@H](CCCCN)NC(=O)[C@H](CCCNC(=N)N)NC(=O)[C@H](Cc1ccc(O)cc1)NC(=O)[C@H](Cc1c[nH]c2ccccc12)NC(=O)[C@@H](NC(=O)[C@H](CCCNC(=N)N)NC(=O)[C@@H](NC(=O)[C@H](CCCCN)NC(=O)[C@H](CCCCN)NC(=O)[C@H](CC(C)C)NC(=O)[C@H](CC(C)C)NC(=O)[C@@H](N)CCC(N)=O)C(C)C)[C@@H](C)O)C(=O)N[C@@H](Cc1ccc(O)cc1)C(=O)NCC(=O)N[C@@H](CCCCN)C(=O)N[C@H](C(N)=O)C(C)C [Off2.2.5] (H-QLLKKVRTWYRKAWHLYGKV-NH2),27.2 ± 0.5,16 ± 2,29.3 ± 0.9,> 200,
CC[C@H](C)[C@H](NC(=O)[C@@H](N)CCCCN)C(=O)N[C@@H](Cc1ccccc1)C(=O)N[C@@H](CCCCN)C(=O)N[C@@H](CCCCN)C(=O)N[C@@H](Cc1ccccc1)C(=O)N[C@@H](CCCCN)C(=O)N[C@@H](CC(=O)O)C(=O)N[C@@H](Cc1c[nH]c2ccccc12)C(=O)N[C@@H](Cc1ccccc1)C(=O)N[C@@H](CCCCN)C(=O)N[C@@H](CCCCN)C(=O)N[C@@H](C)C(=O)N[C@@H](Cc1ccccc1)C(=O)N[C@@H](Cc1c[nH]cn1)C(=O)N[C@H](C(=O)N[C@@H](CC(C)C)C(=O)NCC(=O)N[C@@H](CCCCN)C(=O)N[C@H](C(N)=O)C(C)C)C(C)C [Off2.5] (H-KIFKKFKDWFKKAFHVLGKV-NH2),22 ± 1,10.4 ± 0.8,14.8 ± 0.7,> 100,
CC[C@H](C)[C@H](NC(=O)[C@H](CCCCN)NC(=O)[C@H](CCCCN)NC(=O)[C@@H](NC(=O)[C@@H](NC(=O)[C@@H](N)CCC(N)=O)[C@@H](C)CC)[C@@H](C)CC)C(=O)N[C@@H](CCCNC(=N)N)C(=O)N[C@H](C(=O)N[C@@H](Cc1c[nH]c2ccccc12)C(=O)N[C@@H](Cc1ccc(O)cc1)C(=O)N[C@@H](CCCNC(=N)N)C(=O)N[C@@H](CCCCN)C(=O)N[C@@H](C)C(=O)N[C@@H](Cc1c[nH]c2ccccc12)C(=O)N[C@@H](Cc1c[nH]cn1)C(=O)N[C@H](C(=O)N[C@@H](CC(C)C)C(=O)NCC(=O)N[C@@H](CCCCN)C(=O)N[C@H](C(N)=O)C(C)C)C(C)C)[C@@H](C)O [Off2.2] (H-QIIKKIRTWYRKAWHVLGKV-NH2),42 ± 7,11.6 ± 0.8,20 ± 1,,> 200
